Laboratory results published in US12399167B2 (priority 2019, dated 2025).
Values after ≈ are worked out from the molar mass of the structure shown. Values joined by “and” are separate entries in the source; they are usually repeats but may differ in a detail not shown here. Equal entries are not always repeated. Where two headings read alike, the source gives them in different places.

Columns and labels:
[1] = tested on: zebrafish embryos and larvae (AB strain); conditions: for NH: Number of health fish: of 60 embryos
Description: Toxicant exposure of the embryos: transferring healthy zebrafish embryos laid within 4 hours with droppers into 24 well plates which serve as embryo incubation containers, adding one embryo and 2 mL of the test drug liquid into each well, setting four replicates at a time for each concentration, using a total of 4×15 embryos per concentration; then, placing the 24 well plates into an incubator at a temperature of 26±1° C., allowing incubation under a condition of 14 h light: 10 h dark, recording the death number and the incubation time of the embryos every day, and replacing the test drug liquids once every two days during this test stage. Each concentration consumes a total of 60 embryos, and thus multiple 24 well plates are used during the test.
Selection of a test organism: zebrafish is selected as the test organism, the zebrafish is AB strain and embryos used in the test are propagated and obtained by the following methods: before the test, zebrafish broodstock is reared in water at a temperature of 26±1° C., the ratio of light time to dark time is 14 h:10 h, and when it is lighted, it should be naturally illuminated in a 4.8 m×3.0 m room, plus four 40 W fluorescent lamps, and the feeding lasts at least 2 weeks in an environment which is oxygenated by aeration, the zebrafish broodstock is fed once a day during pre-cultivation, and feces and food residues are removed in time. The zebrafish is purchased from the Institute of Hydrobiology of Chinese Academy of Science. The zebrafish has the advantages of short growth cycle, strong reproductive ability, transparent fertilized eggs, and easy observation of embryonic development, making it an important model organism in aquatic ecological toxicology research.
Toxicant exposure of larvae: recording the number of the larvae at the end of the embryo hatching, transferring the larvae into glass beakers containing 200 mL of the test drug liquid with the corresponding test concentration, replacing the test drug liquids once every two days during this test stage that lasts 30 days after hatching, and feeding the zebrafish larvae with yolk in the first three days and then with fairy shrimp twice a day, wherein the larvae are firstly fed on the fourth or fifth day after spawning. The feed amount is adjusted according to the actual situation so as to be able to freely ingest and avoid excess.
During the test, if relevant test data are found to be not in the preceding scopes, then the current test is invalid, and a new test is required to be carried out again.
Observation in the test: observing the hatching rate and survival rate and recording the quantity of the larvae once a day; checking the larvae's malformation, the number of malformed larvae and abnormal behaviors once a week; removing impurities and dead larvae in beakers in a timely manner; all live larvae of the control groups and the concentration test groups are anesthetized with MS-222 for measurement of the body lengths and wet weights one by one at the end of the test, wherein the body length of each adolescent fish is measured with a vernier caliper, and the wet weight of each adolescent fish is weighed with an electronic balance. The reciprocal sensibility of the electronic balance is 0.00001 g, and the moisture on the body surface of each fish needs to be removed when the wet weight is weighed.
DPS statistical analysis software is the existing software and therefore is not described in detail here. Any other software that can implement the statistical analysis function is also available.

[2] = 20° C.; cited from earlier work

## CN/C(=N/CC1CCOC1)N[N+](=O)[O-] (centres unmarked) [dinotefuran]
[1]; 9.375 mg a.i./L
  weights of the larvae versus control groups: obviously different
[1]; 9.375 mg a.i./L, end of test
  AL: Average length of live fish: 15.86 ± 0.95 a mm
  AM: Accumulative mortality: 26.67 a %
  NH: Number of health fish: 44 Piece
[1]; 9.375 mg/L, end of test
  Average weight of Live fish: 16.53 ± 2.18 b mg
[1]; 18.75 mg a.i./L
  weights of the larvae versus control groups: obviously different
[1]; 18.75 mg a.i./L, end of test
  AL: Average length of live fish: 15.83 ± 0.88 a mm
  AM: Accumulative mortality (death rate of the larvae): 41.67% and 41.67 b %
  NH: Number of health fish: 35 Piece
[1]; 18.75 mg/L, end of test
  Average weight of Live fish: 14.21 ± 1.68 c mg
[1]; 37.5 mg a.i./L
  body lengths of the larvae versus control groups: obviously different
  weights of the larvae versus control groups: obviously different
[1]; 37.5 mg a.i./L, end of test
  AL: Average length of live fish: 13.52 ± 1.61 b mm
  AM: Accumulative mortality (death rate of the larvae): 46.67% and 46.67 b %
  NH: Number of health fish: 32 Piece
[1]; 37.5 mg/L, end of test
  Average weight of Live fish: 13.89 ± 1.96 c mg
[1]; 75.0 mg a.i./L
  body lengths of the larvae versus control groups: obviously different
  weights of the larvae versus control groups: obviously different
[1]; 75.0 mg a.i./L, end of test
  AL: Average length of live fish: 12.83 ± 1.53 b mm
  AM: Accumulative mortality (death rate of the larvae): 55.0% and 55.0 b %
  NH: Number of health fish: 27 Piece
[1]; 75.0 mg/L, end of test
  Average weight of Live fish: 13.29 ± 2.96 c mg
[1]; 150 mg a.i./L
  fate of all larvae at the end of the test: died
[1]; 300 mg a.i./L
  fate of all larvae at the end of the test: died
[1]; end of test
  minimum observable effect concentration on the body lengths of the larvae: 37.5 mg a.i./L
  minimum observable effect concentration on the weights of the larvae: 9.375 mg a.i./L
  unobservable effect concentration on the body lengths of the larvae: 18.75 mg a.i./L
[1]; test groups
  toxic symptoms during the exposure stage: no obvious toxic symptoms were observed except malformation of several fishes before death
[2]
  solubility in methanol: 57 mg/mL (≈ 282 mM)
